Results as given in patent US20230407243A1, “GENETIC PLATFORM TO INVESTIGATE THE FUNCTIONS OF BACTERIAL DRUG EFFLUX PUMPS” (priority 2022, published 2023).
Where two headings read alike, the source gives them in different places.

Assays:
Assay type in all cases: cell-based, Escherichia coli
E. coli ΔtolC = assay: microbe, parasite or virus in culture; conditions: for MIC: Escherichia coli, 18 h, read-out: Minimum Inhibitory Concentration, ΔtolC; for Minimum inhibitory concentration (MIC), ΔtolC: Table 10, without pore, technical duplicate
Outline: (§1)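 MIC derived from pre-incubation-corrected OD600 after 18 h growth at 37° C. (900 rpm) in MHB II. Inoculum was cells from 18 h LB culture adjusted to OD600 ~1.0 in PBS, then diluted 1/2000; compounds two-fold serially titrated in duplicate, DMSO as solvent control.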

[1] = system: wild-type E. coli K-12 str. BW25113; assay: microbe, parasite or virus in culture; conditions: Escherichia coli, BW25113, technical duplicate
Outline: as §1

E. coli EKO-35 = assay: microbe, parasite or virus in culture; conditions: for Fold change of MICs: EKO-35 compared to EKO-35 (reference); for MIC: Escherichia coli, EKO35, technical duplicate
Outline: as §1

EKO-35 araC::acrD Pore = assay: MIC susceptibility profiling, porinated efflux platform; conditions: for Fold changes of MICs: EKO-35 araC::acrD Pore compared to EKO-35-Pore; for MIC: Escherichia coli, Table 14A, porinated, technical duplicate, read-out: Minimum inhibitory concentration, EKO-35 araC::acrD Pore
Outline: (§2)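 MIC values come from background-corrected OD600 readings (pre-incubation OD subtracted) after 18 h at 37 °C and 900 rpm in MHB II. Compounds were tested in duplicate as 2-fold dilutions. The inoculum came from 18 h LB cultures adjusted to OD600 ~1.0 and diluted 1/2000, and the pore-bearing strains were vancomycin-checked beforehand.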

EKO-35 araC::emrKY Pore = assay: as above; conditions: for Fold changes of MICs: EKO-35 araC::emrKY Pore compared to EKO-35-Pore; for MIC: Escherichia coli, EKO-35 araC::emrKY Pore, technical duplicate, read-out: Minimum inhibitory concentration
Outline: as §2

[2] = system: EKO-35 araC::acrBD408A Pore; assay: as above; conditions: for Fold changes of MICs: EKO-35 araC::acrBD408A Pore compared to EKO-35-Pore; for MIC: Escherichia coli, EKO-35 araC::acrBD408A Pore, technical duplicate, read-out: Minimum inhibitory concentration
Outline: as §2

wild-type (WT) K-12-Pore = assay: microbe, parasite or virus in culture; conditions: Escherichia coli, technical duplicate
Outline: as §2

ΔtolC-Pore = assay: microbe, parasite or virus in culture; conditions: for MIC: Escherichia coli, 18 h, read-out: Minimum inhibitory concentration, ΔtolC-Pore; for Minimum inhibitory concentration (MIC), Pore ΔtolC: Table 10, with pore, technical duplicate
Outline: as §2

EKO-35 araC::acrBD408A = assay: MIC susceptibility profiling, efflux platform; conditions: for Fold change of MICs: EKO-35 araC::acrBD408A compared to EKO-35; for MIC: Escherichia coli, Table 13B, non-porinated, technical duplicate, read-out: Minimum Inhibitory Concentration, EKO-35 araC::acrBD408A
Outline: as §1

EKO-35 araC::acrEF = assay: MIC susceptibility profiling, efflux platform; conditions: for Fold change of MICs: EKO-35 araC::acrEF compared to EKO-35
Outline: as §1

EKO-35 araC::acrD = assay: MIC susceptibility profiling, efflux platform; conditions: for Fold change of MICs: EKO-35 araC::acrD compared to EKO-35; for MIC: Escherichia coli, Table 13A, non-porinated, technical duplicate, read-out: Minimum Inhibitory Concentration, EKO-35 araC::acrD
Outline: as §1

EKO-35 araC::macAB = assay: MIC susceptibility profiling, efflux platform; conditions: for Fold change of MICs: EKO-35 araC::macAB compared to EKO-35; for MIC: Escherichia coli, Table 13B, non-porinated, technical duplicate, read-out: Minimum Inhibitory Concentration, EKO-35 araC::macAB
Outline: as §1

EKO-35 araC::acrB = assay: MIC susceptibility profiling, efflux platform; conditions: for Fold change of MICs: EKO-35 araC::acrB compared to EKO-35; for MIC: Escherichia coli, Table 13A, non-porinated, technical duplicate, read-out: Minimum Inhibitory Concentration, EKO-35 araC::acrB
Outline: as §1

EKO-35 araC::emrAB = assay: MIC susceptibility profiling, efflux platform; conditions: for Fold change of MICs: EKO-35 araC::emrAB compared to EKO-35; for MIC: Escherichia coli, Table 13B, non-porinated, technical duplicate, read-out: Minimum Inhibitory Concentration, EKO-35 araC::emrAB
Outline: as §1

EKO-35 araC::mdtBC = assay: MIC susceptibility profiling, efflux platform; conditions: for Fold change of MICs: EKO-35 araC::mdtBC compared to EKO-35; for MIC: Escherichia coli, Table 13B, non-porinated, technical duplicate, read-out: Minimum Inhibitory Concentration, EKO-35 araC::mdtBC
Outline: as §1

EKO-35 araC::emrKY = assay: MIC susceptibility profiling, efflux platform; conditions: for Fold change of MICs: EKO-35 araC::emrKY compared to EKO-35; for MIC: Escherichia coli, Table 13B, non-porinated, technical duplicate, read-out: Minimum Inhibitory Concentration, EKO-35 araC::emrKY
Outline: as §1

[3] = system: EKO-35 araC::mexCD (MexCD from P. aeruginosa); assay: MIC susceptibility profiling, efflux platform; conditions: for Fold change of MICs: EKO-35 araC::mexCD compared to EKO-35; for MIC: Table 13B, non-porinated, technical duplicate, read-out: Minimum Inhibitory Concentration, EKO-35 araC::mexCD
Outline: as §1

EKO-35 araC::mdtEF = assay: MIC susceptibility profiling, efflux platform; conditions: for Fold change of MICs: EKO-35 araC::mdtEF compared to EKO-35; for MIC: Escherichia coli, Table 13A, non-porinated, technical duplicate, read-out: Minimum Inhibitory Concentration, EKO-35 araC::mdtEF
Outline: as §1

EKO-35-Pore = assay: MIC susceptibility profiling, porinated strain; conditions: for Fold changes of MICs: EKO-35-Pore compared to EKO-35-Pore (reference); for MIC: Escherichia coli, technical duplicate
Outline: as §2

[4] = Table 10, without pore, read-out: Minimum inhibitory concentration (MIC), K-12
[5] = Table 13A, non-porinated, read-out: Minimum Inhibitory Concentration, K-12
[6] = Table 10, without pore, read-out: Minimum inhibitory concentration (MIC), EKO-35
[7] = Table 13A, non-porinated, read-out: Minimum Inhibitory Concentration, EKO-35
[8] = Table 10, with pore, read-out: Minimum inhibitory concentration (MIC), Pore K-12
[9] = Table 14A, porinated, read-out: Minimum inhibitory concentration, K-12 (WT)-Pore
[10] = Table 10, with pore, read-out: Minimum inhibitory concentration (MIC), Pore EKO-35
[11] = Table 14A, porinated, read-out: Minimum inhibitory concentration, EKO-35-Pore

SMILES	MIC (E. coli ΔtolC) [mg/L]	Minimum inhibitory concentration (MIC), ΔtolC (E. coli ΔtolC) [mg/L]	MIC [1, 4] [mg/L]	MIC [1, 5] [mg/L]	Fold change of MICs (E. coli EKO-35) [fold]	MIC (E. coli EKO-35; [6]) [mg/L]	MIC (E. coli EKO-35; [7]) [mg/L]	Fold changes of MICs (EKO-35 araC::acrD Pore) [fold]	MIC (EKO-35 araC::acrD Pore) [mg/L]	Fold changes of MICs (EKO-35 araC::emrKY Pore) [fold]	MIC (EKO-35 araC::emrKY Pore) [mg/L]	Fold changes of MICs [2] [fold]	MIC [2] [mg/L]	MIC (wild-type (WT) K-12-Pore; [8]) [mg/L]	MIC (wild-type (WT) K-12-Pore; [9]) [mg/L]	MIC (ΔtolC-Pore) [mg/L]	Minimum inhibitory concentration (MIC), Pore ΔtolC (ΔtolC-Pore) [mg/L]	Fold change of MICs (EKO-35 araC::acrBD408A) [fold]	MIC (EKO-35 araC::acrBD408A) [mg/L]	Fold change of MICs (EKO-35 araC::acrEF) [fold]	further results
CN(C)c1ccc(O)c2c1C[C@H]1C[C@H]3[C@H](N(C)C)C(O)=C(C(N)=O)C(=O)[C@@]3(O)C(O)=C1C2=O [minocycline]	0.098	0.098	0.781	0.781	1	0.049	0.049	2	0.098	1	0.049	1	0.049	0.781	0.781	0.098	0.098	1	0.049	2	MIC (EKO-35 araC::acrEF; Escherichia coli, Table 13A, non-porinated, technical duplicate, read-out: Minimum Inhibitory Concentration, EKO-35 araC::acrEF): 0.098 mg/L; Fold change of MICs (EKO-35 araC::acrD): 2 fold; MIC (EKO-35 araC::acrD): 0.098 mg/L; Fold change of MICs (EKO-35 araC::macAB): 1 fold; MIC (EKO-35 araC::macAB): 0.049 mg/L; Fold change of MICs (EKO-35 araC::acrB): 8 fold; MIC (EKO-35 araC::acrB): 0.391 mg/L; Fold change of MICs (EKO-35 araC::emrAB): 1 fold; MIC (EKO-35 araC::emrAB): 0.049 mg/L; Fold change of MICs (EKO-35 araC::mdtBC): 1 fold; MIC (EKO-35 araC::mdtBC): 0.049 mg/L; Fold change of MICs (EKO-35 araC::emrKY): 1 fold; MIC (EKO-35 araC::emrKY): 0.049 mg/L; Fold change of MICs [3]: 1 fold; MIC [3]: 0.049 mg/L; Fold change of MICs (EKO-35 araC::mdtEF): 1 fold; MIC (EKO-35 araC::mdtEF): 0.049 mg/L; Fold changes of MICs (EKO-35-Pore): 1 fold; MIC (EKO-35-Pore; [10]): 0.049 mg/L; MIC (EKO-35-Pore; [11]): 0.049 mg/L
CCn1cc(C(=O)O)c(=O)c2ccc(C)nc21 [nalidixic acid]	1.25	1.25	10	10	1	1.25	1.25	1	1.25	1	1.25	1	1.25	5	5	1.25	1.25	1	1.25	4	Fold change of MICs (EKO-35 araC::acrD): 2 fold; MIC (EKO-35 araC::acrD): 2.5 mg/L; Fold change of MICs (EKO-35 araC::macAB): 1 fold; MIC (EKO-35 araC::macAB): 1.25 mg/L; Fold change of MICs (EKO-35 araC::acrB): 8 fold; MIC (EKO-35 araC::acrB): 10 mg/L; Fold change of MICs (EKO-35 araC::emrAB): 8 fold; MIC (EKO-35 araC::emrAB): 10 mg/L; Fold change of MICs (EKO-35 araC::mdtBC): 1 fold; MIC (EKO-35 araC::mdtBC): 1.25 mg/L; Fold change of MICs (EKO-35 araC::emrKY): 1 fold; MIC (EKO-35 araC::emrKY): 1.25 mg/L; Fold change of MICs [3]: 2 fold; MIC [3]: 2.5 mg/L; Fold change of MICs (EKO-35 araC::mdtEF): 1 fold; MIC (EKO-35 araC::mdtEF): 1.25 mg/L; Fold changes of MICs (EKO-35-Pore): 1 fold; MIC (EKO-35-Pore; [10]): 1.25 mg/L; MIC (EKO-35-Pore; [11]): 1.25 mg/L
